Where two headings read alike, the source gives them in different places.
Biological target: T1, Hsp90 (Homo sapiens, UniProt P07900)
T1 construct: The region encoding full-length Hsp90 was subcloned into pET28a; inferred from the pET28a vector and Ni-NTA purification; made in house; host or cells: E. coli
Test: Malachite green assay of Hsp90 ATPase activity
Format: biochemical
Conditions: for inhibition at 40 µM: read-out: Inhibition rate (% in 40 μM)
Description: The region encoding full-length Hsp90 was subcloned into pET28a. Protein expression in E. coli cells were induced with 0.5 mM IPTG. Cells were harvested after 20h of growth at 16°C and then disrupted by sonication. The soluble lysate was clarified by centrifugation and applied to a Ni^2+-nitrilo-triacetic acid (NTA) agarose column in a buffer (50 mM Tris-Cl, 300 mM NaCl, 10 mM Imidazole, 10% [v/v] Glycerol, 10 mM PMSF, 10 mM DTT). Hsp90 Protein was eluted with a linear gradient of 20–1000 mM imidazole. Hsp90 was identified by SDS-PAGE, and the high concentrated fraction was dialyzed against ATPase buffer (20 mM Tris-Cl, pH 7.5; 6 mM MgCl2; 20 mM KCl) and then aliquoted, frozen in liquid nitrogen, stored at −80°C.
The test compounds were diluted from mother plates (10 mM in 100% (v/v) DMSO) into daughter plates (200 μM in 2.0% (v/v) DMSO); 5 μL of test compound solution was added to each well (equivalent to a final concentration of 40 μM) of the 96-well assay plate. The first and last rows of the 96-well plate contained the appropriate concentration of DMSO were used as blank control. ATP was dissolved in the assay buffer to give a stock concentration of 2.5 mM and stored at room temperature. A 10 μL aliquot of ATP solution was added to each well to give a final assay concentration of 1 mM. Before the usage, Hsp90 protein was thawed on ice and suspended in chilled assay buffer to a stock concentration of 0.45 mg/mL, and the solution was kept on ice. The incubation was started by adding 10 μL of the stock Hsp90 to each well (except for the background wells which received 10 μL of assay buffer), giving a final assay volume of 25 μL. The plates were shaken for approximately 2 min and incubated for 3 h at 37°C.
The assay procedures were based on the literatures [33]–[35]. […] The reagent is initially dark brown, but on standing for ∼2 h at room temperature changes to a golden yellow and is ready for use. The assay buffer was 100 mM Tris–HCl, 20 mM KCl, 6 mM MgCl2, pH 7.4.
To stop the ATPase reactions, 80 μL of the malachite green reagent was added to each well.

[1] = 40 μM, colorimetric assay for inorganic phosphate
[2] = colorimetric assay for inorganic phosphate, 40 μM

inhibition at 40 µM [1] [%] | Hsp90 inhibition activity (in words) [2] | SMILES | inhibition at 40 µM [%]
42.8 | moderate | COc1ccc(-c2csc3ncn(CC(=O)NC4CCCCC4)c(=O)c23)cc1OC [Compound S11] | 
-47.8 |  | COc1ccc(-c2csc3ncn(CC(=O)Nc4ccc(C)cc4C)c(=O)c23)cc1OC [Compound S9] | 
 |  | CCOC(=O)c1c(C)n(CCOc2cccc3ccccc23)c2ccc(O)cc12 [Compound S2] | -10.2
-14.5 |  | CCCOc1ccc(C(=O)C2=C(O)C(=O)N(Cc3cccnc3)C2c2ccccc2)cc1 (stereo not drawn) [Compound S5] | 
48.8 | moderate | COCCN1C(=O)C(O)=C(C(=O)c2ccc3c(c2)CC(C)O3)C1c1cccc(OC)c1 (stereo not drawn) [Compound S17] | 
-6.22 |  | COc1cccc(CNc2nc(SC)ncc2CO)c1 [Compound S16] | 
-35.1 |  | O=C(NNC1CC(=O)N(c2ccc(Br)cc2)C1=O)c1cccnc1 (stereo not drawn) [Compound S7] | 
-7.53 |  | CCCCCOc1cccc(C2C(C(=O)c3cccs3)=C(O)C(=O)N2CCN2CCOCC2)c1 (stereo not drawn) [Compound S6] | 
-11.6 |  | COc1ccc(CNC(=O)CSc2nc3ccc(N)cc3s2)cc1 [Compound S3] | 
47.5 | moderate | Cc1ccc(S(=O)(=O)N2CCN(CC(O)COc3ccc(-c4ccccc4)cc3)CC2)cc1C (stereo not drawn) [Compound S14] | 
48.2 | moderate | COCCCN1C(=O)C(O)=C(C(=O)c2ccc(OC(C)C)c(C)c2)C1c1cccnc1 (stereo not drawn) [Compound S4] | 
12.6 |  | CCOC(=O)C1=C(Nc2ccc(OC)cc2)S/C(=C\c2ccc[nH]2)C1=O [Compound S12] | 
36 |  | CCOc1ccc(-c2csc3ncn(CC(=O)Nc4cc(C)ccc4C)c(=O)c23)cc1 [Compound S10] | 
18.9 |  | Cc1cccc(OCCn2c(SCC(O)CO)nc3ccccc32)c1 (stereo not drawn) [Compound S15] | 

From article PMC3615092, “Identification, Design and Bio-Evaluation of Novel Hsp90 Inhibitors by Ligand-Based Virtual Screening” (PLoS ONE, 2013)
